pIC50: −log10 of the molar value. Activity calls are given as the source filed them. No cut-off for these calls is given here.
Columns and labels:
MGC-803 [1] = test: Induction of apoptosis in human MGC803 cells assessed as viable cells at 4 uM after 12 to 24 hrs using annexin V-FITC/PI double staining by flow cytometry (reference value: 90.4 %); assay type: functional; conditions: read-out: Activity
MGC-803 [2] = test: Induction of apoptosis in human MGC803 cells assessed as early apoptotic cells at 4 uM after 12 to 24 hrs using annexin V-FITC/PI double staining by flow cytometry (reference value: 1.6 %); assay type: functional
MGC-803 [3] = test: Induction of apoptosis in human MGC803 cells assessed as late apoptotic cells at 4 uM after 12 to 24 hrs using annexin V-FITC/PI double staining by flow cytometry (reference value: 1.2 %); assay type: functional
MGC-803 [4] = test: Induction of apoptosis in human MGC803 cells assessed as necrotic cells at 4 uM after 12 to 24 hrs using annexin V-FITC/PI double staining by flow cytometry (reference value: 6.8 %); assay type: functional
MGC-803 [5] = test: Induction of apoptosis in human MGC803 cells assessed as total apoptotic cells at 1 uM after 12 to 24 hrs using annexin V-FITC/PI double staining by flow cytometry (reference value: 2.8 %); assay type: functional
MGC-803 [6] = test: Induction of apoptosis in human MGC803 cells assessed as total apoptotic cells at 2 uM after 12 to 24 hrs using annexin V-FITC/PI double staining by flow cytometry (reference value: 2.8 %); assay type: functional
MGC-803 [7] = test: Induction of apoptosis in human MGC803 cells assessed as total apoptotic cells at 4 uM after 12 to 24 hrs using annexin V-FITC/PI double staining by flow cytometry (reference value: 2.8 %); assay type: functional
MGC-803 [8] = test: Induction of apoptosis in human MGC803 cells after 12 to 24 hrs using annexin V-FITC/PI double staining by flow cytometry; assay type: functional, cell-based
[9] = Anticancer activity against human EC109 cells assessed as inhibition of proliferation after 72 hrs by MTT assay; assay type: functional, cell-based; conditions: ECa-109, 72 h
MCF7 = test: Anticancer activity against human MCF7 cells assessed as inhibition of proliferation after 72 hrs by MTT assay; assay type: functional, cell-based; conditions: MCF7, 72 h
MGC-803 [10] = test: Anticancer activity against human MGC803 cells assessed as inhibition of proliferation after 72 hrs by MTT assay; assay type: functional, cell-based; conditions: MGC-803, 72 h
[11] = Anticancer activity against mouse B16F10 cells assessed as inhibition of proliferation after 72 hrs by MTT assay; assay type: functional, cell-based; conditions: B16-F10, 72 h
[12] = Cytotoxicity against human GES-1 cells assessed as inhibition of proliferation after 72 hrs by MTT assay; assay type: cell-based; conditions: GES1, 72 h
MGC-803 [13] = test: Induction of apoptosis in human MGC803 cells assessed as increase in p53 level at 2 to 4 uM after 48 hrs by Western blot analysis; assay type: functional, cell-based
MGC-803 [14] = test: Induction of apoptosis in human MGC803 cells assessed as decrease in pro-caspase 3 level at 2 to 4 uM after 48 hrs by Western blot analysis; assay type: functional, cell-based
MGC-803 [15] = test: Induction of apoptosis in human MGC803 cells assessed as cell rounding at 1 to 4 uM after 24 hrs using Hoechst 33258 staining by fluorescence microscopy; assay type: functional, cell-based
MGC-803 [16] = test: Induction of apoptosis in human MGC803 cells assessed as chromatin shrinkage at 1 to 4 uM after 24 hrs using Hoechst 33258 staining by fluorescence microscopy; assay type: functional, cell-based
MGC-803 [17] = test: Induction of apoptosis in human MGC803 cells assessed as formation of apoptotic bodies at 1 to 4 uM after 24 hrs using Hoechst 33258 staining by fluorescence microscopy; assay type: functional, cell-based
MGC-803 [18] = test: Induction of apoptosis in human MGC803 cells assessed as viable cells at 1 uM after 12 to 24 hrs using annexin V-FITC/PI double staining by flow cytometry (reference value: 90.4 %); assay type: functional; conditions: read-out: Activity
MGC-803 [19] = test: Induction of apoptosis in human MGC803 cells assessed as early apoptotic cells at 1 uM after 12 to 24 hrs using annexin V-FITC/PI double staining by flow cytometry (reference value: 1.6 %); assay type: functional
MGC-803 [20] = test: Induction of apoptosis in human MGC803 cells assessed as late apoptotic cells at 1 uM after 12 to 24 hrs using annexin V-FITC/PI double staining by flow cytometry (reference value: 1.2 %); assay type: functional
MGC-803 [21] = test: Induction of apoptosis in human MGC803 cells assessed as necrotic cells at 1 uM after 12 to 24 hrs using annexin V-FITC/PI double staining by flow cytometry (reference value: 6.8 %); assay type: functional
MGC-803 [22] = test: Induction of apoptosis in human MGC803 cells assessed as viable cells at 2 uM after 12 to 24 hrs using annexin V-FITC/PI double staining by flow cytometry (reference value: 90.4 %); assay type: functional; conditions: read-out: Activity
MGC-803 [23] = test: Induction of apoptosis in human MGC803 cells assessed as early apoptotic cells at 2 uM after 12 to 24 hrs using annexin V-FITC/PI double staining by flow cytometry (reference value: 1.6 %); assay type: functional
MGC-803 [24] = test: Induction of apoptosis in human MGC803 cells assessed as late apoptotic cells at 2 uM after 12 to 24 hrs using annexin V-FITC/PI double staining by flow cytometry (reference value: 1.2 %); assay type: functional
MGC-803 [25] = test: Induction of apoptosis in human MGC803 cells assessed as necrotic cells at 2 uM after 12 to 24 hrs using annexin V-FITC/PI double staining by flow cytometry (reference value: 6.8 %); assay type: functional

pIC50 (MCF7): 4.68
pIC50 (MGC-803 [10]): 5.15
Structure (SMILES): COc1cc(-c2nc(SCc3cn(CC(=O)NC(=O)Nc4ccccn4)nn3)nc(Nc3ccc(C)cc3)c2C#N)cc(OC)c1OC
viability at 4 µM (MGC-803 [1]): 35.2%
Activity (MGC-803 [2]): 52.7%
Activity (MGC-803 [3]): 10.3%
Activity (MGC-803 [4]): 1.8%
Activity (MGC-803 [5]): 17.2%
Activity (MGC-803 [6]): 32.5%
Activity (MGC-803 [7]): 63%
Activity (MGC-803 [8]): Dose-dependent effect
pIC50 [9]: 4.67
pIC50 [11]: 7.49
pIC50 [12]: < 4.19
Activity (MGC-803 [13]): Active
Activity (MGC-803 [14]): Active
Activity (MGC-803 [15]): Active
Activity (MGC-803 [16]): Active
Activity (MGC-803 [17]): Active
viability at 1 µM (MGC-803 [18]): 80.3%
Activity (MGC-803 [19]): 13.1%
Activity (MGC-803 [20]): 4.1%
Activity (MGC-803 [21]): 2.5%
viability at 2 µM (MGC-803 [22]): 65.8%
Activity (MGC-803 [23]): 26.1%
Activity (MGC-803 [24]): 6.4%
Activity (MGC-803 [25]): 1.7%

Source: ChEMBL document CHEMBL3400121, “Design and synthesis of novel 1,2,3-triazole-pyrimidine-urea hybrids as potential anticancer agents” (Bioorg Med Chem Lett, 2015)
